In PubChem BioAssay AID1259407 (Chemical Carcinogenesis Research Information System (CCRIS), 2018):
Activity calls are given as the source filed them. How the calls were made is not given here.

Test system: CCRIS mutagenicity, Ames/micronucleus/aberration tests
Assay: CCRIS mutagenicity studies
[1] = Test System: AMES SALMONELLA TYPHIMURIUM, Strain/Indicator: TA98, Metabolic Activation: NONE, Method: PREINCUBATION
[2] = Test System: AMES SALMONELLA TYPHIMURIUM, Strain/Indicator: TA100, Metabolic Activation: NONE, Method: PREINCUBATION
[3] = Test System: AMES SALMONELLA TYPHIMURIUM, Strain/Indicator: TA100, Metabolic Activation: RAT, LIVER, S-9, AROCLOR 1254, Method: STANDARD PLATE
[4] = Test System: AMES SALMONELLA TYPHIMURIUM, Strain/Indicator: TA100, Metabolic Activation: NONE, Method: STANDARD PLATE
[5] = Test System: AMES SALMONELLA TYPHIMURIUM, Strain/Indicator: TA98, Metabolic Activation: NONE, Method: STANDARD PLATE
[6] = Test System: AMES SALMONELLA TYPHIMURIUM, Strain/Indicator: TA1535, Metabolic Activation: NONE, Method: STANDARD PLATE

SMILES: O=C(OC[C@@H]1O[C@H](OC(=O)c2cc(O)c(O)c(OC(=O)c3cc(O)c(O)c(O)c3)c2)[C@@H](OC(=O)c2cc(O)c(O)c(OC(=O)c3cc(O)c(O)c(O)c3)c2)[C@H](OC(=O)c2cc(O)c(O)c(OC(=O)c3cc(O)c(O)c(O)c3)c2)[C@H]1OC(=O)c1cc(O)c(O)c(OC(=O)c2cc(O)c(O)c(O)c2)c1)c1cc(O)c(O)c(OC(=O)c2cc(O)c(O)c(O)c2)c1
- mutagenic call [1]: inactive; negative
- mutagenic call (Test System: AMES SALMONELLA TYPHIMURIUM, Strain/Indicator: TA98, Metabolic Activation: RAT LIVER S-9, Method: PREINCUBATION): inactive; negative
- mutagenic call [2]: inactive; negative
- mutagenic call (Test System: AMES SALMONELLA TYPHIMURIUM, Strain/Indicator: TA100, Metabolic Activation: RAT LIVER S-9, Method: PREINCUBATION): inactive; negative
- mutagenic call (Test System: AMES SALMONELLA TYPHIMURIUM, Strain/Indicator: TA102, Metabolic Activation: RAT LIVER S-9, PHENOBARBITAL AND 5,6-BENZOFLAVONE, Method: STANDARD PLATE): inactive; negative
- mutagenic call (Test System: AMES SALMONELLA TYPHIMURIUM, Strain/Indicator: TA2638, Metabolic Activation: RAT LIVER S-9, PHENOBARBITAL AND 5,6-BENZOFLAVONE, Method: STANDARD PLATE): inactive; negative
- mutagenic call (Test System: E. COLI, Strain/Indicator: WP2 (PKM101), Metabolic Activation: RAT LIVER S-9, PHENOBARBITAL AND 5,6-BENZOFLAVONE, Method: STANDARD PLATE): inactive; negative
- mutagenic call (Test System: E. COLI, Strain/Indicator: WP2 UVRA (PKM101), Metabolic Activation: RAT LIVER S-9, PHENOBARBITAL AND 5,6-BENZOFLAVONE, Method: STANDARD PLATE): inactive; negative

SMILES: CCOP(=O)(OCC)SCCSCC (tested in a mixture with another compound)
- mutagenic call (Test System: E. COLI, Strain/Indicator: WP2 UVRA, Metabolic Activation: NONE, Method: STANDARD PLATE): active; positive
- mutagenic call (Test System: E. COLI, Strain/Indicator: WP2 UVRA, Metabolic Activation: RAT, LIVER, S-9, AROCLOR 1254, Method: STANDARD PLATE): active; positive
- mutagenic call (Test System: UDS HUMAN FIBROBLASTS, Strain/Indicator: THY INCORP (NON-S-PHASE), Metabolic Activation: NONE, Method: LIQUID SCINTILLATION COUNTING): active; positive

SMILES: Cc1cc([N+](=O)[O-])cc2ccccc12
- mutagenic call [1]: active; positive

SMILES: Cc1ccc2ccccc2n1
- mutagenic call [3]: active; positive
- mutagenic call (Test System: AMES SALMONELLA TYPHIMURIUM, Strain/Indicator: TA100, Metabolic Activation: RAT, LIVER, S-9, PHENOBARBITAL AND 5,6-BENZOFLAVONE, Method: PREINCUBATION): active; positive
- mutagenic call (Test System: AMES SALMONELLA TYPHIMURIUM, Strain/Indicator: TA100, Metabolic Activation: RAT, LIVER, S-9, PHENOBARBITAL AND 5,6-NAPHTHOFLAVONE, Method: PREINCUBATION): active; positive
- mutagenic call (Test System: AMES SALMONELLA TYPHIMURIUM, Strain/Indicator: TA100, Metabolic Activation: RAT, LIVER, S-9, Method: PREINCUBATION): inactive; negative
- mutagenic call (Test System: UDS RODENT HEPATOCYTES, Strain/Indicator: THY INCORP (NON-S-PHASE), Metabolic Activation: NONE, Method: AUTORADIOGRAPHY): inactive; negative

SMILES: CC(C)(S)[C@H](N)C(=O)O
- mutagenic call (Test System: AMES SALMONELLA TYPHIMURIUM, Strain/Indicator: TA92, Metabolic Activation: NONE, Method: STANDARD PLATE): active; positive
- mutagenic call (Test System: AMES SALMONELLA TYPHIMURIUM, Strain/Indicator: TA92, Metabolic Activation: RAT, KIDNEY, S-9, Method: STANDARD PLATE): active; positive
- mutagenic call (Test System: AMES SALMONELLA TYPHIMURIUM, Strain/Indicator: TA92, Metabolic Activation: RAT, LIVER, S-9, Method: STANDARD PLATE): active; positive
- mutagenic call [4]: active; positive
- mutagenic call (Test System: AMES SALMONELLA TYPHIMURIUM, Strain/Indicator: TA100, Metabolic Activation: RAT, KIDNEY, S-9, Method: STANDARD PLATE): active; positive
- mutagenic call (Test System: AMES SALMONELLA TYPHIMURIUM, Strain/Indicator: TA100, Metabolic Activation: RAT, LIVER, S-9, Method: STANDARD PLATE): active; positive
- mutagenic call (Test System: AMES SALMONELLA TYPHIMURIUM, Strain/Indicator: TA102, Metabolic Activation: NONE, Method: STANDARD PLATE): active; positive

SMILES: CCCCCCCCCCCC(=O)OCCS(=O)(=O)O
- mutagenic call (Test System: AMES SALMONELLA TYPHIMURIUM, Strain/Indicator: TA98, Metabolic Activation: HAMSTER, LIVER, S-9, AROCLOR 1254, Method: STANDARD PLATE): inactive; negative
- mutagenic call [5]: inactive; negative
- mutagenic call (Test System: AMES SALMONELLA TYPHIMURIUM, Strain/Indicator: TA98, Metabolic Activation: RAT, LIVER, S-9, AROCLOR 1254, Method: STANDARD PLATE): inactive; negative
- mutagenic call (Test System: AMES SALMONELLA TYPHIMURIUM, Strain/Indicator: TA100, Metabolic Activation: HAMSTER, LIVER, S-9, AROCLOR 1254, Method: STANDARD PLATE): inactive; negative
- mutagenic call [4]: inactive; negative
- mutagenic call [3]: inactive; negative
- mutagenic call (Test System: AMES SALMONELLA TYPHIMURIUM, Strain/Indicator: TA1535, Metabolic Activation: HAMSTER, LIVER, S-9, AROCLOR 1254, Method: STANDARD PLATE): inactive; negative
- mutagenic call [6]: inactive; negative
- mutagenic call (Test System: AMES SALMONELLA TYPHIMURIUM, Strain/Indicator: TA1535, Metabolic Activation: RAT, LIVER, S-9, AROCLOR 1254, Method: STANDARD PLATE): inactive; negative
- mutagenic call (Test System: AMES SALMONELLA TYPHIMURIUM, Strain/Indicator: TA1537, Metabolic Activation: HAMSTER, LIVER, S-9, AROCLOR 1254, Method: STANDARD PLATE): inactive; negative
- mutagenic call (Test System: AMES SALMONELLA TYPHIMURIUM, Strain/Indicator: TA1537, Metabolic Activation: NONE, Method: STANDARD PLATE): inactive; negative
- mutagenic call (Test System: AMES SALMONELLA TYPHIMURIUM, Strain/Indicator: TA1537, Metabolic Activation: RAT, LIVER, S-9, AROCLOR 1254, Method: STANDARD PLATE): inactive; negative
- mutagenic call (Test System: MOUSE LYMPHOMA, Strain/Indicator: L5178Y (TK+/TK-), Metabolic Activation: NONE, Method: SUSPENSION/PLATE): inactive; negative. reevaluation of results: negative
- mutagenic call (Test System: MOUSE LYMPHOMA, Strain/Indicator: L5178Y (TK+/TK-), Metabolic Activation: RAT, LIVER, S-9, AROCLOR 1254, Method: SUSPENSION/PLATE): inactive; negative. reevaluation of results: negative

SMILES: NNC(N)=O
- mutagenic call (End Point: IN VIVO MICRONUCLEUS, Test System: POLYCHROMATIC ERYTHROCYTES, Species: MOUSE, Strain/Sex: BALB/C/MALE, Route: IP INJECTION): inactive; negative
- mutagenic call (End Point: IN VIVO MICRONUCLEUS, Test System: POLYCHROMATIC ERYTHROCYTES, Species: MOUSE, Strain/Sex: CBA/MALE, Route: IP INJECTION): inactive; negative

SMILES: c1ccc(CCC2CO2)cc1 (stereo unspecified)
- mutagenic call [2]: active; positive
- mutagenic call [4]: active; positive
- mutagenic call (Test System: AMES SALMONELLA TYPHIMURIUM, Strain/Indicator: TA1535, Metabolic Activation: NONE, Method: PREINCUBATION): active; positive
- mutagenic call [6]: active; positive

SMILES: Cc1ccc2n[nH]nc2c1
- mutagenic call (Test System: AMES SALMONELLA TYPHIMURIUM, Strain/Indicator: TA97, Metabolic Activation: NONE): inactive; negative
- mutagenic call (Test System: AMES SALMONELLA TYPHIMURIUM, Strain/Indicator: TA97, Metabolic Activation: RAT, LIVER, S-9, AROCLOR 1254): inactive; negative
- mutagenic call (Test System: AMES SALMONELLA TYPHIMURIUM, Strain/Indicator: TA98, Metabolic Activation: NONE): inactive; negative
- mutagenic call (Test System: AMES SALMONELLA TYPHIMURIUM, Strain/Indicator: TA98, Metabolic Activation: RAT, LIVER, S-9, AROCLOR 1254): inactive; negative
- mutagenic call (Test System: AMES SALMONELLA TYPHIMURIUM, Strain/Indicator: TA100, Metabolic Activation: NONE): inactive; negative
- mutagenic call (Test System: AMES SALMONELLA TYPHIMURIUM, Strain/Indicator: TA100, Metabolic Activation: RAT, LIVER, S-9, AROCLOR 1254): inactive; negative
- mutagenic call (Test System: AMES SALMONELLA TYPHIMURIUM, Strain/Indicator: TA102, Metabolic Activation: NONE): inactive; negative
- mutagenic call (Test System: AMES SALMONELLA TYPHIMURIUM, Strain/Indicator: TA102, Metabolic Activation: RAT, LIVER, S-9, AROCLOR 1254): inactive; negative

SMILES: CCc1ccc(/C=C/c2ccc(N)cc2)cc1
- mutagenic call [5]: inactive; negative
- mutagenic call (Test System: AMES SALMONELLA TYPHIMURIUM, Strain/Indicator: TA98, Metabolic Activation: RAT LIVER S9, AROCLOR, Method: STANDARD PLATE): active; positive
- mutagenic call [4]: inactive; negative
- mutagenic call (Test System: AMES SALMONELLA TYPHIMURIUM, Strain/Indicator: TA100, Metabolic Activation: RAT, LIVER, S9, AROCLOR, Method: STANDARD PLATE): active; positive
